Reference: ChEMBL document CHEMBL5143537, “Quinazoline-based hydroxamic acid derivatives as dual histone methylation and deacetylation inhibitors for potential anticancer agents” (Bioorg Med Chem, 2022)
Active and inactive are the calls of the source. The calls are words filed in the database; no cut-off is given here.

Tests used:
[1] = biological target: T1, Protein deacetylase HDAC6 (Homo sapiens, UniProt Q9UBN7); assay: Inhibition of recombinant HDAC6 (unknown origin) using Ac-peptide-AMC as substrate preincubated for 15 mins followed by substrate addition and measured after 60 mins by fluorescence assay
T1 sequence (Q9UBN7 whole entry): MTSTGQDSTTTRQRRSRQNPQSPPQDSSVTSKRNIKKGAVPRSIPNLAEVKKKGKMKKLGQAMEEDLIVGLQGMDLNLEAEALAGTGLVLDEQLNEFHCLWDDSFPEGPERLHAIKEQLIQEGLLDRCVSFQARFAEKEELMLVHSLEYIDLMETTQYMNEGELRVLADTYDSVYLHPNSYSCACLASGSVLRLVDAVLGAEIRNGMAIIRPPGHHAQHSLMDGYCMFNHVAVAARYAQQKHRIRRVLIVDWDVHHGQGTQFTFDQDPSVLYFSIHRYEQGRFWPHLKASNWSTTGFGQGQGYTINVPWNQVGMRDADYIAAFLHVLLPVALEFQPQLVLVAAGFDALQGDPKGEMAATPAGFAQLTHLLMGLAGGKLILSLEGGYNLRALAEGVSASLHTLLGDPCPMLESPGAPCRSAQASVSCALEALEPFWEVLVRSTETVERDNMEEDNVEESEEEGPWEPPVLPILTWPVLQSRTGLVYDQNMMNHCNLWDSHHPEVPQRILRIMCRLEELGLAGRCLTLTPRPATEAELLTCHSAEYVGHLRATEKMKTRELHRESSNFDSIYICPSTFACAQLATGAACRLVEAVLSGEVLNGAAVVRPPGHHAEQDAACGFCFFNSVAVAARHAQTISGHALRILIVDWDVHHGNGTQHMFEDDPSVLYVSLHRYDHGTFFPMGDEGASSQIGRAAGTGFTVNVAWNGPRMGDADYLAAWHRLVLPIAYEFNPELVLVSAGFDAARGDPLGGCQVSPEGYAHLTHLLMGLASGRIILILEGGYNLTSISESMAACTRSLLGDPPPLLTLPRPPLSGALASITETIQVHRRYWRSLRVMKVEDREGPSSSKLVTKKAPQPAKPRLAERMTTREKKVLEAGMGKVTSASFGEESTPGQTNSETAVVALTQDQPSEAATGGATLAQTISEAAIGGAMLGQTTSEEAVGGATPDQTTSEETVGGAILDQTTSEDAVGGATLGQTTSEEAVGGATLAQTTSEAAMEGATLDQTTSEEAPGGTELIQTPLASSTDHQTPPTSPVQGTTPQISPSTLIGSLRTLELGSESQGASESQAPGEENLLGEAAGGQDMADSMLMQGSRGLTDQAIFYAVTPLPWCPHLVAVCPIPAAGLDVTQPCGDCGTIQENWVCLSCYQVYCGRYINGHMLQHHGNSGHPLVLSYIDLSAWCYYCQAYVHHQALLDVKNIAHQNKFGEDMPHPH

HepG2 [2] = assay: Cell cycle arrest in human HepG2 cells assessed as accumulation at G0/G1 phase at 10 uM measured after 48 hrs by propidium iodide staining based flow cytometry (reference value: 55.24%); assay type: functional
HepG2 [3] = assay: Induction of apoptosis in human HepG2 cells assessed as late apoptotic cells at 10 uM measured after 48 hrs by Annexin V-FITC/propidium iodide staining based flow cytometry (reference value: 4.55%); assay type: functional
K562 = assay: Antiproliferative activity against human K562 cells measured after 72 hrs by MTT assay; assay type: functional, cell-based; settings: K562, 72 h
HepG2 [4] = assay: Induction of apoptosis in human HepG2 cells assessed as viable cells at 5 uM measured after 48 hrs by Annexin V-FITC/propidium iodide staining based flow cytometry (reference value: 88.58%); assay type: functional; settings: read-out: Activity
A-431 = assay: Antiproliferative activity against human A-431 cells measured after 72 hrs by MTT assay; assay type: functional, cell-based; settings: A-431, 72 h
HepG2 [5] = assay: Cell cycle arrest in human HepG2 cells assessed as increase in p21 expression measured after 24 hrs by Western blot analysis; assay type: functional, cell-based; settings: dose 1.25-20 µM, DDE = dose-dependent effect
HepG2 [6] = assay: Induction of apoptosis in human HepG2 cells assessed as increase in cleaved caspase-7 expression at 1.25 to 20 uM measured after 48 hrs by Western blot analysis; assay type: functional, cell-based; settings: dose 1.25-20 µM
HepG2 [7] = assay: Induction of apoptosis in human HepG2 cells assessed as early apoptotic cells at 20 uM measured after 48 hrs by Annexin V-FITC/propidium iodide staining based flow cytometry (reference value: 6.87%); assay type: functional
HepG2 [8] = assay: Antiproliferative activity against human HepG2 cells measured after 72 hrs by MTT assay; assay type: functional, cell-based; settings: HepG2, 72 h
HepG2 [9] = assay: Cell cycle arrest in human HepG2 cells assessed as accumulation at S phase at 10 uM measured after 48 hrs by propidium iodide staining based flow cytometry (reference value: 32.39%); assay type: functional
HepG2 [10] = assay: Induction of apoptosis in human HepG2 cells assessed as late apoptotic cells at 2.5 uM measured after 48 hrs by Annexin V-FITC/propidium iodide staining based flow cytometry (reference value: 4.55%); assay type: functional
HepG2 [11] = assay: Induction of apoptosis in human HepG2 cells measured after 48 hrs by Annexin V-FITC/propidium iodide staining based flow cytometry; assay type: functional, cell-based; settings: dose 1.25-25 µM, DDE = dose-dependent effect
HepG2 [12] = assay: Cell cycle arrest in human HepG2 cells assessed as accumulation at G2/M phase at 2.5 uM measured after 48 hrs by propidium iodide staining based flow cytometry (reference value: 12.37%); assay type: functional
[13] = Metabolic stability in rat liver microsomes assessed as parent compound remaining at 1 uM measured after 5 mins by LC-MS/MS analysis; assay type: ADME, Microsome; settings: read-out: Stability
HepG2 [14] = assay: Cell cycle arrest in human HepG2 cells assessed as accumulation at G0/G1 phase at 5 uM measured after 48 hrs by propidium iodide staining based flow cytometry (reference value: 55.24%); assay type: functional
HepG2 [15] = assay: Induction of apoptosis in human HepG2 cells assessed as early apoptotic cells at 10 uM measured after 48 hrs by Annexin V-FITC/propidium iodide staining based flow cytometry (reference value: 6.87%); assay type: functional
Histone deacetylase 1 = Histone deacetylase 1 (Homo sapiens, UniProt Q13547); assay: Inhibition of recombinant human HDAC1 expressed in baculovirus infection system using Ac-peptide-AMC as substrate preincubated for 15 mins followed by substrate addition and measured after 60 mins by fluorescence assay
[16] = Metabolic stability in rat liver microsomes assessed as parent compound remaining at 1 uM measured after 45 mins by LC-MS/MS analysis; assay type: ADME, Microsome; settings: read-out: Stability
HeLa = assay: Antiproliferative activity against human HeLa cells measured after 72 hrs by MTT assay; assay type: functional, cell-based
HepG2 [17] = assay: Cell cycle arrest in human HepG2 cells assessed as increase in p27 expression measured after 24 hrs by Western blot analysis; assay type: functional, cell-based; settings: dose 1.25-20 µM, DDE = dose-dependent effect
HepG2 [18] = assay: Induction of apoptosis in human HepG2 cells assessed as early apoptotic cells at 2.5 uM measured after 48 hrs by Annexin V-FITC/propidium iodide staining based flow cytometry (reference value: 6.87%); assay type: functional
MDA-MB-231 = assay: Antiproliferative activity against human MDA-MB-231 cells measured after 72 hrs by MTT assay; assay type: functional, cell-based; settings: MDA-MB-231, 72 h

Histone deacetylase 1, sequence (Q13547 whole entry): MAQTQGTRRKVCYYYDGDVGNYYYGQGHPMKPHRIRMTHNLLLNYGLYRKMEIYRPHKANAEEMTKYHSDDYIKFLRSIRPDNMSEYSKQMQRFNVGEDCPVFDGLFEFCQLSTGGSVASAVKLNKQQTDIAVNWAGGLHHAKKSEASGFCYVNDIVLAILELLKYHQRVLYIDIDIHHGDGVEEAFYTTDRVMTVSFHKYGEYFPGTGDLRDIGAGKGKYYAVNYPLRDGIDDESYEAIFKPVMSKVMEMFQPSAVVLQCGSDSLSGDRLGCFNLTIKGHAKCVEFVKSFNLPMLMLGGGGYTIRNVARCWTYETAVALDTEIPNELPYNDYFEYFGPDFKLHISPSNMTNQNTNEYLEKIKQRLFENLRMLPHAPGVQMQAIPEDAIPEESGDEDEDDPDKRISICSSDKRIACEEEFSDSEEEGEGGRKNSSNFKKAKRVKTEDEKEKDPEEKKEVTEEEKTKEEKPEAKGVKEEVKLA

IC50 [1]: 13 nM
IC50 (K562): 2600 nM
IC50 (A-431): 2380 nM
IC50 (HepG2 [8]): 2740 nM
remaining at 5 min, 1 µM [13]: 81.1%
IC50 (Histone deacetylase 1): 89 nM
remaining at 0.75 h, 1 µM [16]: 14.2%
IC50 (HeLa): 3340 nM
IC50 (MDA-MB-231): 9300 nM
Compound: COc1cc2nc(N3CCN(CCCCCC(=O)NO)CC3)nc(NC3CCN(Cc4ccccc4)CC3)c2cc1OC
Activity (HepG2 [2]): 59.81%
Activity (HepG2 [3]): 6.17%
viability at 5 µM (HepG2 [4]): 87.3%
Activity (HepG2 [5]): Dde
Activity (HepG2 [6]): Active
Activity (HepG2 [7]): 49.75%
Activity (HepG2 [9]): 24.67%
Activity (HepG2 [10]): 2.27%
Activity (HepG2 [11]): Dde
Activity (HepG2 [12]): 13.29%
Activity (HepG2 [14]): 58.07%
Activity (HepG2 [15]): 16.02%
Activity (HepG2 [17]): Dde
Activity (HepG2 [18]): 10.22%
